Experimental data: US12391648B2, “Pyridyloxy thioester derivative and preparation method therefor, herbicidal composition, and application” (Qingdao Kingagroot Chemical Compound Co., Ltd., priority 2018, dated 2025)

Columns and labels:
Test in all cases: Post-emergence test experiment (Table 3, 1000 g/ha)
Format in all cases: in vivo
Conditions in all cases: post-emergence spray, after 3 weeks, fresh weight inhibition
Abutilon theophrasti = system: Abutilon theophrasti
Method in brief: (§1)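 Weed seeds sown in soil-filled pots in greenhouse, sprayed at 2-3 leaf stage (2 weeks after sowing) with compound in acetone/tween-80 plus methyl oleate emulsible concentrate (1.5 L/ha) diluted in water. Fresh-weight growth inhibition scored after 3 weeks on 0-5 scale (5: >85%, 0: <5%).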

Digitaria sanguinalis = system: Digitaria sanguinalis
Method in brief: as §1

Galium spurium = system: Galium spurium
Method in brief: as §1

Leptochloa chinensis = system: Leptochloa chinensis
Method in brief: as §1

Monochoria vaginalis = system: Monochoria vaginalis
Method in brief: as §1

Setaria viridis = system: Setaria viridis
Method in brief: as §1

Row | Structure (SMILES) | Activity level (growth inhibition rate) Abutilon theophrasti (Abutilon theophrasti) | Activity level (growth inhibition rate) Digitaria sanguinalis (Digitaria sanguinalis) | Activity level (growth inhibition rate) Galium spurium (Galium spurium) | Activity level (growth inhibition rate) Leptochloa chinensis (Leptochloa chinensis) | Activity level (growth inhibition rate) Monochoria Vaginalis (Monochoria vaginalis) | Activity level (growth inhibition rate) Setaria viridis (Setaria viridis)
1 | CC(Oc1nc(F)c(Cl)c(N)c1Cl)C(=O)Sc1cccc(Cl)c1 (stereo not drawn) [Compound 110] | 5 (Level 5: the growth inhibition rate is greater than 85%) | 5 (Level 5: the growth inhibition rate is greater than 85%) | 5 (Level 5: the growth inhibition rate is greater than 85%) | 5 (Level 5: the growth inhibition rate is greater than 85%) | 5 (Level 5: the growth inhibition rate is greater than 85%) | 5 (Level 5: the growth inhibition rate is greater than 85%)
2 | CSC(=O)C(C)Oc1nc(C(F)(F)F)c(Cl)c(N)c1Cl (stereo not drawn) [Compound 6] | 5 (Level 5: the growth inhibition rate is greater than 85%) | 5 (Level 5: the growth inhibition rate is greater than 85%) | 5 (Level 5: the growth inhibition rate is greater than 85%) | 5 (Level 5: the growth inhibition rate is greater than 85%) | 5 (Level 5: the growth inhibition rate is greater than 85%) | 5 (Level 5: the growth inhibition rate is greater than 85%)
3 | CC(Oc1nc(F)c(Cl)c(N)c1Cl)C(=O)Sc1cn(C)cn1 (stereo not drawn) [Compound 123] | 5 (Level 5: the growth inhibition rate is greater than 85%) | 5 (Level 5: the growth inhibition rate is greater than 85%) | 5 (Level 5: the growth inhibition rate is greater than 85%) | 5 (Level 5: the growth inhibition rate is greater than 85%) | 5 (Level 5: the growth inhibition rate is greater than 85%) | 5 (Level 5: the growth inhibition rate is greater than 85%)
4 | CSC(=O)C(C)Oc1nc(F)c(F)c(N)c1F (stereo not drawn) [Compound 1] | 5 (Level 5: the growth inhibition rate is greater than 85%) | 5 (Level 5: the growth inhibition rate is greater than 85%) | 5 (Level 5: the growth inhibition rate is greater than 85%) | 5 (Level 5: the growth inhibition rate is greater than 85%) | 5 (Level 5: the growth inhibition rate is greater than 85%) | 5 (Level 5: the growth inhibition rate is greater than 85%)
5 | CCOC(=O)SC(=O)C(C)Oc1nc(F)c(Cl)c(N)c1Cl (stereo not drawn) [Compound 101] | 5 (Level 5: the growth inhibition rate is greater than 85%) | 5 (Level 5: the growth inhibition rate is greater than 85%) | 5 (Level 5: the growth inhibition rate is greater than 85%) | 5 (Level 5: the growth inhibition rate is greater than 85%) | 5 (Level 5: the growth inhibition rate is greater than 85%) | 5 (Level 5: the growth inhibition rate is greater than 85%)
6 | CCCc1c(F)nc(OC(C)C(=O)SC)c(C2CC2)c1N (stereo not drawn) [Compound 14] | 5 (Level 5: the growth inhibition rate is greater than 85%) | 5 (Level 5: the growth inhibition rate is greater than 85%) | 5 (Level 5: the growth inhibition rate is greater than 85%) | 5 (Level 5: the growth inhibition rate is greater than 85%) | 5 (Level 5: the growth inhibition rate is greater than 85%) | 5 (Level 5: the growth inhibition rate is greater than 85%)
7 | CCCCCCCCCSC(=O)C(C)Oc1nc(F)c(Cl)c(N)c1Cl (stereo not drawn) [Compound 140] | 5 (Level 5: the growth inhibition rate is greater than 85%) | 5 (Level 5: the growth inhibition rate is greater than 85%) | 5 (Level 5: the growth inhibition rate is greater than 85%) | 5 (Level 5: the growth inhibition rate is greater than 85%) | 5 (Level 5: the growth inhibition rate is greater than 85%) | 5 (Level 5: the growth inhibition rate is greater than 85%)
8 | CCC(C)(C)SC(=O)C(C)Oc1nc(F)c(Cl)c(N)c1Cl (stereo not drawn) [Compound 149] | 5 (Level 5: the growth inhibition rate is greater than 85%) | 5 (Level 5: the growth inhibition rate is greater than 85%) | 5 (Level 5: the growth inhibition rate is greater than 85%) | 5 (Level 5: the growth inhibition rate is greater than 85%) | 5 (Level 5: the growth inhibition rate is greater than 85%) | 5 (Level 5: the growth inhibition rate is greater than 85%)
9 | CC(Oc1nc(F)c(Cl)c(N)c1Cl)C(=O)SCC(F)(F)C(F)(F)F (stereo not drawn) [Compound 80] | 5 (Level 5: the growth inhibition rate is greater than 85%) | 5 (Level 5: the growth inhibition rate is greater than 85%) | 5 (Level 5: the growth inhibition rate is greater than 85%) | 5 (Level 5: the growth inhibition rate is greater than 85%) | 5 (Level 5: the growth inhibition rate is greater than 85%) | 5 (Level 5: the growth inhibition rate is greater than 85%)
10 | CC(Oc1nc(F)c(Cl)c(N)c1Cl)C(=O)Sc1ccc(C(F)(F)F)cc1 (stereo not drawn) [Compound 112] | 5 (Level 5: the growth inhibition rate is greater than 85%) | 5 (Level 5: the growth inhibition rate is greater than 85%) | 5 (Level 5: the growth inhibition rate is greater than 85%) | 5 (Level 5: the growth inhibition rate is greater than 85%) | 5 (Level 5: the growth inhibition rate is greater than 85%) | 5 (Level 5: the growth inhibition rate is greater than 85%)
11 | CC(C)CCSC(=O)C(C)Oc1nc(F)c(Cl)c(N)c1Cl (stereo not drawn) [Compound 146] | 5 (Level 5: the growth inhibition rate is greater than 85%) | 5 (Level 5: the growth inhibition rate is greater than 85%) | 5 (Level 5: the growth inhibition rate is greater than 85%) | 5 (Level 5: the growth inhibition rate is greater than 85%) | 5 (Level 5: the growth inhibition rate is greater than 85%) | 5 (Level 5: the growth inhibition rate is greater than 85%)
12 | Cc1ccccc1SC(=O)C(C)Oc1nc(F)c(Cl)c(N)c1Cl (stereo not drawn) [Compound 108] | 5 (Level 5: the growth inhibition rate is greater than 85%) | 5 (Level 5: the growth inhibition rate is greater than 85%) | 5 (Level 5: the growth inhibition rate is greater than 85%) | 5 (Level 5: the growth inhibition rate is greater than 85%) | 5 (Level 5: the growth inhibition rate is greater than 85%) | 5 (Level 5: the growth inhibition rate is greater than 85%)
13 | CC(Oc1nc(F)c(Cl)c(N)c1Cl)C(=O)SC(C)C(C)C (stereo not drawn) [Compound 147] | 5 (Level 5: the growth inhibition rate is greater than 85%) | 5 (Level 5: the growth inhibition rate is greater than 85%) | 5 (Level 5: the growth inhibition rate is greater than 85%) | 5 (Level 5: the growth inhibition rate is greater than 85%) | 5 (Level 5: the growth inhibition rate is greater than 85%) | 5 (Level 5: the growth inhibition rate is greater than 85%)
14 | CCCc1c(OC(C)C(=O)SCC(F)(F)F)nc(Br)c(Cl)c1N (stereo not drawn) [Compound 18] | 5 (Level 5: the growth inhibition rate is greater than 85%) | 5 (Level 5: the growth inhibition rate is greater than 85%) | 5 (Level 5: the growth inhibition rate is greater than 85%) | 5 (Level 5: the growth inhibition rate is greater than 85%) | 5 (Level 5: the growth inhibition rate is greater than 85%) | 5 (Level 5: the growth inhibition rate is greater than 85%)
